Experimental data from patent US20150218141A1, “SUBSTITUTED CARBAMATE COMPOUNDS” (HOFFMANN-LA ROCHE INC, priority 2012, published 2015).
pIC50: −log10 of the molar value. Where a name gives a salt, the structure may show the parent alone.

biological target: T1, hTRPA1 (Homo sapiens, UniProt O75762); assay: IC50 determination, dose response calcium flux (FLIPR) assay, ChanTest hTRPA1-CHO stably transfected cell line; type: cell-based; details: CHO-K1 Tet-On hTRPA1 cells, 30' preincubation, agonist cinnamaldehyde final 100 uM
T1 construct: host or cells: CHO-K1 Tet-On, Clone 20 (Chinese Hamster Ovary cells, inducible expression)
Protocol: IC50 Determination of Exemplified Compounds Dose Response Assay: ChanTest hTRPA1-CHO Stably Transfected Cell Line
CHO-K1 Tet-On_HOMSA_TRPA1_Clone—20
Growth Media for CHO-K1 Tet-On_HOMSA_TRPA1_Clone—20 • Ham's F-12 with 10% tetracycline-free FBS • 1× penicillin-streptomycin • 1× glutamax • 0.01 mg/ml Blasticidin • 0.40 mg/ml Zeocin • The cell line doubling rate was ˜15 hours. […] Experiments were run at 24 hours post induction.
Plating Conditions CHOK1/TRPA1 Cells: • Harvested cells with 0.025% trypsin/EDTA. • Resuspended cells in growth media without selection antibiotics. • Measured cell density and diluted to 2.4×10^5 cells/ml in media containing 1 ug/ml Doxycycline Plate 25 ul/well into 384 well black/clear tissue culture-treated plates. • Incubated overnight at 37° C.
Reagents: • Replacement Buffer: Hank's Balanced Salt Solution, 20 mM HEPES along with 0.005% BSA and 2× Probenecid • Dye Loading Buffer: Cal-3 NW Calcium dye was prepared by dissolving the contents of one vial with […] Hank's Balanced Salt Solution containing 20 mM HEPES. • Control compounds for CHOK1/TRPA1 cells: AP-18, stock 10 mM, prepare 3.5× compound dilution in a Compound Buffer (HBSS/20 mM HEPES/0.005% BSA)—final concentration 10 uM.
Preparation of Cinnamaldehyde (Agonist Addition):
• Specific gravity=1.046 gm/cc • 1.32 gm/1.046 gm/cc=1.26 ml of stock • Add 1.74 ml DMSO=3.3 M stock • Working solution 4.5× (final 100 uM in Compound Buffer: HBSS/20 mM HEPES/0.005% BSA)
Compounds dilutions were prepared from 5 or 10 mM stock (100% DMSO): • Adjustments of volumes and concentrations were made at time of titration to reflect desired final assay concentrations. • Compounds were tested at either 20 μM three folds dilution 11 steps out or 30 μM two folds dilution 11 steps out. • 3 μl of diluted compound were transferred into Weidmann 384-well plate in duplicates side-by-side.
Compound plates were resuspended with 100 ul of HBSS/20 mM HEPES/0.005% BSA buffer (Compound Buffer):
Growth media was removed from the cell plates (20 ul) and 20 ul of the Replacement Buffer was added followed by addition of 25 ul of diluted dye. All three steps were performed using a Plate Washer BioTek 407. The plates were then incubated for 30′ at RT.
After incubation, both the cell and compound plates were brought to the FLIPR and 20 ul of the diluted compounds/antagonist/bk were transferred to the cell plates by the FLIPR. Plates were then incubated for 30′ at room temperature. After 30′ incubation, plates were returned to the FLIPR and 20 ul of 4.5× Cinnamaldehyde was added to the cell plates. During the compound addition as well as agonist addition, fluorescence readings were taken simultaneously from all 384 wells of the cell plate every 1.5 seconds. Five readings were taken to establish a stable baseline, then 20 ul of sample was rapidly (30 ul/sec) and simultaneously added to each well of the cell plate. The fluorescence was continuously monitored before, during and after sample/agonist addition for a total elapsed time of 100 seconds (compound addition) and 120 seconds (agonist addition). Responses (increase in peak fluorescence) in each well following agonist addition was determined. The initial fluorescence reading from each well, prior to ligand stimulation, was used a zero baseline value for the data from that well.

T1 sequence (O75762 whole entry): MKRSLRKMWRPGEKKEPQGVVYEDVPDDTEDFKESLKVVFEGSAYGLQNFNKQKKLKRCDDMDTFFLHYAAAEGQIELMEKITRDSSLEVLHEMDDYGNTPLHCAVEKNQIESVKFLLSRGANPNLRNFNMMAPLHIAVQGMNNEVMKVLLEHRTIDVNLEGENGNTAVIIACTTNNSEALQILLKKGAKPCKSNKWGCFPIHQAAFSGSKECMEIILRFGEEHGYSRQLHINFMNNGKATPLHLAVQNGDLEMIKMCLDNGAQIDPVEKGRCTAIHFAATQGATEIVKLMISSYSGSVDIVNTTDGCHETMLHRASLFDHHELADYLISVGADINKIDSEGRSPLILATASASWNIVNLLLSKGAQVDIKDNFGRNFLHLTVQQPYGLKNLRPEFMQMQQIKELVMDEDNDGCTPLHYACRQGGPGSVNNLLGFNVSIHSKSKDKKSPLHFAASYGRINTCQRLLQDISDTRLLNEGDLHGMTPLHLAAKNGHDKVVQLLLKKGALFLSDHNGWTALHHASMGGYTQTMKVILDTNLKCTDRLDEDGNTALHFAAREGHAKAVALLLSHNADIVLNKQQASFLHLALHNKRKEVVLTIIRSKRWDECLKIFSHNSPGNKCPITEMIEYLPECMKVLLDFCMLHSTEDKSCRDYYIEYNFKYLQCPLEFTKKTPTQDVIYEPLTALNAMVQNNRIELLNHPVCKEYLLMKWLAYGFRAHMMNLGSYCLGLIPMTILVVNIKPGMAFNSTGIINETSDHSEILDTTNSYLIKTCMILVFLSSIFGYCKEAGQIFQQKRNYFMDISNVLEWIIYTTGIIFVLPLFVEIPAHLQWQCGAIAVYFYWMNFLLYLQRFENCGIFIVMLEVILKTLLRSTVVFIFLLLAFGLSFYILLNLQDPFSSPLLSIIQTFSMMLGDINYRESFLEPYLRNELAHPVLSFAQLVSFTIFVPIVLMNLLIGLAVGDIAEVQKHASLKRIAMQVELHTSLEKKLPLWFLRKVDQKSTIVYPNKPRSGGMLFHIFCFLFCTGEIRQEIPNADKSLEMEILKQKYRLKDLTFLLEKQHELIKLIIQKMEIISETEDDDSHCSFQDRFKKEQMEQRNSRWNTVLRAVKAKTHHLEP

Structure (SMILES)	pIC50
Cc1noc(C2CCCN(C[C@H](OC(=O)Nc3ccc(Cl)cc3)C(F)(F)F)C2)n1 (mixture of isomers) [Example 28, (4-Chlorophenyl)-carbamic acid (S)-2,2,2-trifluoro-1-[3-(3-methyl-[1,2,4]oxadiazol-5-yl)-piperidin-1-ylmethyl]-ethyl ester hydrochloride]	5.73
O=C(Nc1ccc(Cl)cc1)O[C@@H](CN1CCC[C@H](Oc2ccncc2)C1)C(F)(F)F (racemic) [Example 22a, (4-chloro-phenyl)-carbamic acid 2,2,2-trifluoro-1-[(R)-3-(pyridin-4-yloxy)-piperidin-1-ylmethyl]-ethyl ester]	5.38
O=C(Nc1ccc(Cl)cc1)O[C@@H](CN1CCC[C@H](Oc2ccncc2)C1)C(F)(F)F (racemic) [Example 22b, (4-chlorophenyl)-carbamic acid 2,2,2-trifluoro-1-[(S)-3-(pyridin-4-yloxy)-piperidin-1-ylmethyl]-ethyl ester]	5.75
O=C(C[C@@H](CN1CCC[C@H](c2cccc(C(F)(F)F)c2)C1)C(F)(F)F)Nc1ccc(Cl)cc1 (racemic) [Example 25, Racemic (S)—N-(4-Chlorophenyl)-4,4,4-trifluoro-3-[(R)-3-(3-trifluoromethylphenyl)-piperidin-1-ylmethyl]-butyramide]	6.87
O=C(C[C@@H](CN1CCC[C@@H](c2cccc(C(F)(F)F)c2)C1)C(F)(F)F)Nc1ccc(Cl)cc1 (racemic) [Example 26, Racemic (S)—N-(4-Chloro-phenyl)-4,4,4-trifluoro-3-[(S)-3-(3-trifluoromethyl-phenyl)-piperidin-1-ylmethyl]-butyramide]	5.85
O=C(Nc1ccc(Cl)cc1)O[C@@H](CN1CCC[C@@H](Cc2ccccc2)C1)C(F)(F)F (single isomer, unassigned) [Example 10]	5.87
O=C(Nc1ccc(Cl)cc1)O[C@@H](CN1CCC[C@H](Cc2ccccc2)C1)C(F)(F)F (single isomer, unassigned) [Example 11]	7.06
O=C(Nc1ccc(Cl)cc1)O[C@@H](CN1CCC[C@@H](c2cc(C(F)(F)F)cc(C(F)(F)F)c2)C1)C(F)(F)F (single isomer, unassigned) [Example 24]	6.51
O=C(Nc1ccc(Cl)cc1)O[C@@H](CN1CCC[C@H](c2cccc(C(F)(F)F)c2)C1)C(F)(F)F (single isomer, unassigned) [Example 30, hydrochloride]	7.98
COc1ccccc1C1CCCN(CC(OC(=O)Nc2ccc(Cl)cc2)C(F)(F)F)C1 (centres unmarked) [Example 1, (4-Chlorophenyl)-carbamic acid 2,2,2-trifluoro-1-[3-(2-methoxyphenyl)-piperidin-1-ylmethyl]-ethyl ester]	5.30
COc1cccc(C2CCCN(CC(OC(=O)Nc3ccc(Cl)cc3)C(F)(F)F)C2)c1 (centres unmarked) [Example 2, (4-Chlorophenyl)-carbamic acid 2,2,2-trifluoro-1-[3-(3-methoxyphenyl)-piperidin-1-ylmethyl]-ethyl ester hydrochloride]	6.46
COc1cccc([C@H]2CCCN(C[C@H](OC(=O)Nc3ccc(Cl)cc3)C(F)(F)F)C2)c1 [Example 3, (4-Chlorophenyl)-carbamic acid (S)-2,2,2-trifluoro-1-[(R)-3-(3-methoxyphenyl)-piperidin-1-ylmethyl]-ethyl ester hydrochloride]	6.92
COc1cccc([C@@H]2CCCN(C[C@H](OC(=O)Nc3ccc(Cl)cc3)C(F)(F)F)C2)c1 [Example 4, (4-Chlorophenyl)-carbamic acid (S)-2,2,2-trifluoro-1-[(S)-3-(3-methoxyphenyl)-piperidin-1-ylmethyl]-ethyl ester hydrochloride]	5.11
O=C(Nc1ccc(Cl)cc1)O[C@@H](CN1CCC[C@H](c2ccccc2)C1)C(F)(F)F [Example 5, (4-Chlorophenyl)-carbamic acid (S)-2,2,2-trifluoro-1-((R)-3-phenylpiperidin-1-ylmethyl)-ethyl ester hydrochloride]	6.48
